Source: ChEMBL document CHEMBL3991601, “The target landscape of clinical kinase drugs” (Science, 2017)
Active and inactive are the calls of the source. For most assays here, no stated cut-off is given here; in the data, actives have a measured Kd and inactives only a lower limit.

What was measured:
[1] = molecular target: RAC-gamma serine/threonine-protein kinase (Homo sapiens, UniProt Q9Y243)
[2] = molecular target: Cyclin-dependent kinase 12 (Homo sapiens, UniProt Q9NYV4)
[3] = molecular target: Casein kinase I isoform gamma-1 (Homo sapiens, UniProt Q9HCP0)
[4] = molecular target: T1, ATP-dependent RNA helicase DDX1 (Homo sapiens, UniProt Q92499)
T1 sequence (Q92499 whole entry): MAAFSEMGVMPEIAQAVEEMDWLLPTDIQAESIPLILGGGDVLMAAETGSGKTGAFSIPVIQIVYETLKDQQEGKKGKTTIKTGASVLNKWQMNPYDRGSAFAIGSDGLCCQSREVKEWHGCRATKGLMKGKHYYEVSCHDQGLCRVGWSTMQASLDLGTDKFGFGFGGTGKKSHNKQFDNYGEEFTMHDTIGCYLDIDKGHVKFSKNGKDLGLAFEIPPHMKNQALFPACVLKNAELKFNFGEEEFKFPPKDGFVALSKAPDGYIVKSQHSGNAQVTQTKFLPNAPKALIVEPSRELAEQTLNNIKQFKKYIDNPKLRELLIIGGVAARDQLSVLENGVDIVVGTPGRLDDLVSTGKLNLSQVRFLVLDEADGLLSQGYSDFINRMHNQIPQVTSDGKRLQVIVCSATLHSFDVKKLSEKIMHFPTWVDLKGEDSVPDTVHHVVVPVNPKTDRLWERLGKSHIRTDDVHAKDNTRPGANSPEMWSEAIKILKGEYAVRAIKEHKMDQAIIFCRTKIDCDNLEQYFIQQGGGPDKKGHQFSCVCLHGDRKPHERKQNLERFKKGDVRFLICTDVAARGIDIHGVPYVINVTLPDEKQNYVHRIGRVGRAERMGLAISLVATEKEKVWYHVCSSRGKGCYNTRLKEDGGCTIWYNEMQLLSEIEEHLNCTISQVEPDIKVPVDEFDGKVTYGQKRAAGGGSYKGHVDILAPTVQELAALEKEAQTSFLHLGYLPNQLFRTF

[5] = molecular target: T2, Cyclin-G-associated kinase (Homo sapiens, UniProt O14976)
T2 sequence (O14976 whole entry): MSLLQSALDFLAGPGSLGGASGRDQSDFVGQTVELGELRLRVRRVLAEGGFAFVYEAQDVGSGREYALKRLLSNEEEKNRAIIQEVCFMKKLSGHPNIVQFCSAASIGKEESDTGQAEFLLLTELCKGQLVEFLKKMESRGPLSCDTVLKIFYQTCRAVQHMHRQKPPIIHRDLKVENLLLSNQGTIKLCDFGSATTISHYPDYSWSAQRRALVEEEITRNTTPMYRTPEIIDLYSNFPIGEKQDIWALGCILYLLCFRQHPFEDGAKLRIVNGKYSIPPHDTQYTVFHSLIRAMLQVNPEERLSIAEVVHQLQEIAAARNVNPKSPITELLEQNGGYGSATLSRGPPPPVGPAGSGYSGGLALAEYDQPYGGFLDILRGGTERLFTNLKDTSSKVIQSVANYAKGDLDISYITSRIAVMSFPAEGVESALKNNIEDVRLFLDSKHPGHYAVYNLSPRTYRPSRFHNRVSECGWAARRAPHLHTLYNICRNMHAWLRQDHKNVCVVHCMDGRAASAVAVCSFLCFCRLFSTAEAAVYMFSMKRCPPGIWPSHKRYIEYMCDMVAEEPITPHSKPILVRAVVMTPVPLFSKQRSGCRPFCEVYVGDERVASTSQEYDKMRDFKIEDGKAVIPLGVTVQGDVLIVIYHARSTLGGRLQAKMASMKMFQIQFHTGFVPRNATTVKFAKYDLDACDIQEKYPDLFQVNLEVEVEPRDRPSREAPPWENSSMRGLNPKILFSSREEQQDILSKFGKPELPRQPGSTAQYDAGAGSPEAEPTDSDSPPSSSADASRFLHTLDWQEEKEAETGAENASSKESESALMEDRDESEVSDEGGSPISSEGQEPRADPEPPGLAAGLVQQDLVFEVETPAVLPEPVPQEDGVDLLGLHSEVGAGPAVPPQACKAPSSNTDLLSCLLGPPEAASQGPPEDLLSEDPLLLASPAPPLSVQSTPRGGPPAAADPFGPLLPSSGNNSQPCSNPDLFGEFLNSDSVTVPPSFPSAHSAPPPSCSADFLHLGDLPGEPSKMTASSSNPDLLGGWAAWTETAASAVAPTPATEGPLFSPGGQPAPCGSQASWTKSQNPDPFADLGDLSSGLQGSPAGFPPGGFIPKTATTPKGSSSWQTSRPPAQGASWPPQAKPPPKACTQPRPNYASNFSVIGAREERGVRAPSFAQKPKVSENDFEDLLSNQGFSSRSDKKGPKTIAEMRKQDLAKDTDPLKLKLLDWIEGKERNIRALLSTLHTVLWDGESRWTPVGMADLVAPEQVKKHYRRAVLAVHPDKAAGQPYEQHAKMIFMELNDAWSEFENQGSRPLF

[6] = molecular target: Tyrosine-protein kinase HCK (Homo sapiens, UniProt P08631)
[7] = molecular target: Maternal embryonic leucine zipper kinase (Homo sapiens, UniProt Q14680)
[8] = molecular target: NADH dehydrogenase [ubiquinone] 1 alpha subcomplex subunit 13 (Homo sapiens, UniProt Q9P0J0)
[9] = molecular target: Ribosomal protein S6 kinase alpha-6 (Homo sapiens, UniProt Q9UK32)
[10] = molecular target: TRAF2 and NCK-interacting protein kinase (Homo sapiens, UniProt Q9UKE5)
[11] = molecular target: Tyrosine-protein kinase SYK (Homo sapiens, UniProt P43405)

Measured: Kd

Chain of Cyclin-dependent kinase 12 (Q9NYV4 whole entry, canonical isoform): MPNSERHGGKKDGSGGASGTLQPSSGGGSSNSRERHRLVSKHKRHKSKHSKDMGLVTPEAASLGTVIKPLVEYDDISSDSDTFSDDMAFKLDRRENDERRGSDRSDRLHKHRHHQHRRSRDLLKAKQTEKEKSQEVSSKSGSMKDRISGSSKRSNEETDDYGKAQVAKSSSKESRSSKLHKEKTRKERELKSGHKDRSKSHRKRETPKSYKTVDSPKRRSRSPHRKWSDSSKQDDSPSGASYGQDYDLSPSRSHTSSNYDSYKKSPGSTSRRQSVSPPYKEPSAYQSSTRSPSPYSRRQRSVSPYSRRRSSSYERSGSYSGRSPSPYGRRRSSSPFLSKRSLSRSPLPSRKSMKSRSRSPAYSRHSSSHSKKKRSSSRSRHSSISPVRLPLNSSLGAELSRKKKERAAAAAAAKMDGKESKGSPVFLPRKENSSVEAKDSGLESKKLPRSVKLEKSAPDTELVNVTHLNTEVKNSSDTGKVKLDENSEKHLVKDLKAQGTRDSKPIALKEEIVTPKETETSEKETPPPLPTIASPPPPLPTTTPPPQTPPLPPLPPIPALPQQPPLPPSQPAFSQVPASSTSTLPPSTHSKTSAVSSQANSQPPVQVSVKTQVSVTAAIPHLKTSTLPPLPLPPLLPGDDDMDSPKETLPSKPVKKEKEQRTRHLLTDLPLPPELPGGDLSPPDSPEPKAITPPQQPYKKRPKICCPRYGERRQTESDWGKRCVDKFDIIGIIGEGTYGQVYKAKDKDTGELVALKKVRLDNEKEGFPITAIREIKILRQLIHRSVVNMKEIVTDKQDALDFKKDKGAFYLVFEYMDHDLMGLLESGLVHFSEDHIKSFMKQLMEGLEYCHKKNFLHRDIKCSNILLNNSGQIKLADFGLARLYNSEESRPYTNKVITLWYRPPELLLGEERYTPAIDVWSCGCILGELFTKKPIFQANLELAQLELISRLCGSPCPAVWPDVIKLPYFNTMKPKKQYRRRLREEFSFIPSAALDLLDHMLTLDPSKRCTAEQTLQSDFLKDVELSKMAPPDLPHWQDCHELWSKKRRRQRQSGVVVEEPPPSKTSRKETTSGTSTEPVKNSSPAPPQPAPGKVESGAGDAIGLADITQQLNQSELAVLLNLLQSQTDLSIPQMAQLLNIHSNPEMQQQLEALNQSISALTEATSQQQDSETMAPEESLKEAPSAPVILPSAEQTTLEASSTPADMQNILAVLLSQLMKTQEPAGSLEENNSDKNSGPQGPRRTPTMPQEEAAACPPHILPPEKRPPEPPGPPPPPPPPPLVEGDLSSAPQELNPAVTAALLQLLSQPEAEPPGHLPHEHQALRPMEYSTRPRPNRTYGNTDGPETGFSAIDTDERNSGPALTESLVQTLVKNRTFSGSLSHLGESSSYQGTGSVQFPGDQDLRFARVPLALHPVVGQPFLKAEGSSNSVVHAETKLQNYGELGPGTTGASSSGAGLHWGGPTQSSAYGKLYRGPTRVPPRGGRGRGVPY
Chain of RAC-gamma serine/threonine-protein kinase (Q9Y243 whole entry): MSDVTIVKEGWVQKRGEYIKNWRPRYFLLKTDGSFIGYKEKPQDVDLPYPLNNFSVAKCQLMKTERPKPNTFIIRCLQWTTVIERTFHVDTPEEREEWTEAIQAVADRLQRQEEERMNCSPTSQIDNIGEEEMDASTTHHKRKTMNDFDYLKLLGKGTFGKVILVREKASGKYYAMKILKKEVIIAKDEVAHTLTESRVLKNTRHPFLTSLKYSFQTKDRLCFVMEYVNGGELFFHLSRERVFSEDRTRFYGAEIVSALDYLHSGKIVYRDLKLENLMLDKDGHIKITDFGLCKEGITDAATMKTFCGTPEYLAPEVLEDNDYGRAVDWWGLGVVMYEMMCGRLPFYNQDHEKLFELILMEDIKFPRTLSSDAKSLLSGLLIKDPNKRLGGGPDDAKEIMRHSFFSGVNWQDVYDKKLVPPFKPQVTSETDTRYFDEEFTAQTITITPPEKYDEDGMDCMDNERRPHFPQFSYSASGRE
Chain of Casein kinase I isoform gamma-1 (Q9HCP0 whole entry, canonical isoform): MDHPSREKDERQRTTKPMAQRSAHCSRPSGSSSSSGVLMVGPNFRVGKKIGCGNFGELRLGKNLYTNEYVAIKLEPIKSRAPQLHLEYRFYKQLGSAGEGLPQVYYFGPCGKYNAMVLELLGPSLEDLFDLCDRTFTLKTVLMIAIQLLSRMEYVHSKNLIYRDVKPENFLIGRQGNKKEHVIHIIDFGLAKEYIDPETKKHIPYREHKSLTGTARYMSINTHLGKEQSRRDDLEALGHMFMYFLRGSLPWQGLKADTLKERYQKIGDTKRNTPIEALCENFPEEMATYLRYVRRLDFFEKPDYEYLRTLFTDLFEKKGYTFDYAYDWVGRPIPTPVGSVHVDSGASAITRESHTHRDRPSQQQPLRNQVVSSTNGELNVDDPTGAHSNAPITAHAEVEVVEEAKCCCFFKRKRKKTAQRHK
Chain of TRAF2 and NCK-interacting protein kinase (Q9UKE5 whole entry): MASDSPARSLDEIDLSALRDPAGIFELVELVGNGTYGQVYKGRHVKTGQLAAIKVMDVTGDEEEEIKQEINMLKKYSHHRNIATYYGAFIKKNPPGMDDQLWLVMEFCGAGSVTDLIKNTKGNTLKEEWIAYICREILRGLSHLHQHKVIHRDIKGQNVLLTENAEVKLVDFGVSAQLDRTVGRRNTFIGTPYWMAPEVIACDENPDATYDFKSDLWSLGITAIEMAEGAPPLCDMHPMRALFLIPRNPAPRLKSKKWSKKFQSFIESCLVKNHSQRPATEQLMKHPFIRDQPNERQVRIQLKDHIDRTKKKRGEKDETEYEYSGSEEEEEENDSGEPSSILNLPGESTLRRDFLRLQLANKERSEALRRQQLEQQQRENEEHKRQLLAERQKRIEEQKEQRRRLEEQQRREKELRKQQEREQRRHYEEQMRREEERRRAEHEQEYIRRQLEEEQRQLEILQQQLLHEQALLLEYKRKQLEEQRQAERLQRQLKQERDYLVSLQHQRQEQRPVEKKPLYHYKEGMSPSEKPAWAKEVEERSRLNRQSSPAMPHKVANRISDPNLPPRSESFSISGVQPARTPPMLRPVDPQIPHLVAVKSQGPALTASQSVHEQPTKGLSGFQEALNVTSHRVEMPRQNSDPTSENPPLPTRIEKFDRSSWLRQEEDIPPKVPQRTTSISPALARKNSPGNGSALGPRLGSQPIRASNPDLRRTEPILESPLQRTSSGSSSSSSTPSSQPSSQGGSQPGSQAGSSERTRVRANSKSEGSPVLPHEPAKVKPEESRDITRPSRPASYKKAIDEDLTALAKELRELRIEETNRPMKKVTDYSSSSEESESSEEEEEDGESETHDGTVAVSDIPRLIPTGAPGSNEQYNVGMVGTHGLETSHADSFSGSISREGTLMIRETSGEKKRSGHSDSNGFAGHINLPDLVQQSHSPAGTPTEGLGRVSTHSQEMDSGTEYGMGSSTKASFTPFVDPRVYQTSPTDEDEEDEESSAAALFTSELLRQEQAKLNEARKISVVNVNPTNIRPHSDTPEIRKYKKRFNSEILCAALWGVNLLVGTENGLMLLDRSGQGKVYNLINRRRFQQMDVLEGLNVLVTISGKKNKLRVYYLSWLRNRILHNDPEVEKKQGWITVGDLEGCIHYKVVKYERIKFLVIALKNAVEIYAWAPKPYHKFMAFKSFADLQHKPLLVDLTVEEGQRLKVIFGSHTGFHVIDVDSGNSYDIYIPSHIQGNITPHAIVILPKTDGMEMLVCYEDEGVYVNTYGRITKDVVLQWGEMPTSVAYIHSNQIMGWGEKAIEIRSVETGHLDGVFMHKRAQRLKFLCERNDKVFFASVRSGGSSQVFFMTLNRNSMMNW
Chain of NADH dehydrogenase [ubiquinone] 1 alpha subcomplex subunit 13 (Q9P0J0 whole entry, one chain of several): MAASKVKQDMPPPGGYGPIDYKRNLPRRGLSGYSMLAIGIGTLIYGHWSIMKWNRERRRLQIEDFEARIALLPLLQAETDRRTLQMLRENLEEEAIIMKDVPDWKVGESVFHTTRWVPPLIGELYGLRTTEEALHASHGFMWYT
Chain of Maternal embryonic leucine zipper kinase (Q14680 whole entry): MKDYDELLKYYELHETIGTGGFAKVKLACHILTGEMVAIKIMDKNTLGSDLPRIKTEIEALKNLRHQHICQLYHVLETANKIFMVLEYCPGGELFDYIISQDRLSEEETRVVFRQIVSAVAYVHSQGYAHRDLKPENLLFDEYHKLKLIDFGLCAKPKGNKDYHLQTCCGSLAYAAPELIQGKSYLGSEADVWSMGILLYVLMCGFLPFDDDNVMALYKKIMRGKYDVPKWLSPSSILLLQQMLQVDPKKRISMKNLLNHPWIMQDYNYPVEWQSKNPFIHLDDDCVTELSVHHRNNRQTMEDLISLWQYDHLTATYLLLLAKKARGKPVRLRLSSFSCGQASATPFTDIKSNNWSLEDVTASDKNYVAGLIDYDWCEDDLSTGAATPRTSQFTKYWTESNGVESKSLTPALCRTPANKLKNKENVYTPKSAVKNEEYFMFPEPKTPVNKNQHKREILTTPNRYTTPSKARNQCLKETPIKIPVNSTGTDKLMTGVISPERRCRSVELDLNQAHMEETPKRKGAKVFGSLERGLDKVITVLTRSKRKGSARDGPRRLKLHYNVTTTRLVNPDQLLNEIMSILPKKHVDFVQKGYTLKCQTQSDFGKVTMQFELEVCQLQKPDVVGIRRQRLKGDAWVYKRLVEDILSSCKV
Chain of Tyrosine-protein kinase HCK (P08631 whole entry): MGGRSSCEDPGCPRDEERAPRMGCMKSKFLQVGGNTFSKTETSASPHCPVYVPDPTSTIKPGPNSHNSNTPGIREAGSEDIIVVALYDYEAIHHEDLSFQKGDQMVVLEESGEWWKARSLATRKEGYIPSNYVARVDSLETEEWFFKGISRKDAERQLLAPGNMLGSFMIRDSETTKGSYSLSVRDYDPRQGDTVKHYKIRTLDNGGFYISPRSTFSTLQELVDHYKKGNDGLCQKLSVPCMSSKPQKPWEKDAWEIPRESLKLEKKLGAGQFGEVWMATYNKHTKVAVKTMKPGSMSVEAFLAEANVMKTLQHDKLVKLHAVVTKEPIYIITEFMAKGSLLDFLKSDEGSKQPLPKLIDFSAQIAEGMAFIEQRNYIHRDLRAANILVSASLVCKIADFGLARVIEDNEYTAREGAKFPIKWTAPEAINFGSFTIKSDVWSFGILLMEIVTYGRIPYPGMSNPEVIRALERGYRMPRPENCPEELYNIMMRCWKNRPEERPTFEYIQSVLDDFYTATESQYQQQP

C=CCn1c(=O)c2cnc(Nc3ccc(N4CCN(C)CC4)cc3)nc2n1-c1cccc(C(C)(C)O)n1 [ADAVOSERTIB]
active: [5] 0.418 µM
inactive: [1] > 30 µM | [2] > 30 µM | [3] > 30 µM | [4] > 30 µM | [6] > 30 µM | [7] > 30 µM | [8] > 30 µM | [9] > 30 µM | [10] > 30 µM

CN(C)C/C=C/C(=O)Nc1cc2c(Nc3ccc(F)c(Cl)c3)ncnc2cc1O[C@H]1CCOC1 [AFATINIB]
inactive: [2] > 30 µM | [4] > 30 µM | [8] > 30 µM

S=C(NCc1ccc2c(c1)OCO2)N1CCN(c2ncnc3c2oc2ccccc23)CC1 [AMUVATINIB]
inactive: [1] > 30 µM | [2] > 30 µM | [4] > 30 µM | [5] > 30 µM | [6] > 30 µM | [7] > 30 µM | [8] > 30 µM | [9] > 30 µM | [11] > 30 µM | [10] > 30 µM

NC[C@@](O)(c1ccc(Cl)cc1)c1ccc(-c2cn[nH]c2)cc1 [AT-13148]
inactive: [2] > 30 µM | [3] > 30 µM | [4] > 30 µM | [5] > 30 µM | [6] > 30 µM | [7] > 30 µM | [8] > 30 µM | [9] > 30 µM | [11] > 30 µM | [10] > 30 µM

CCN(CCCOc1ccc2c(Nc3cc(CC(=O)Nc4cccc(F)c4)n[nH]3)ncnc2c1)CCOP(=O)(O)O [BARASERTIB]
inactive: [1] > 30 µM | [2] > 30 µM | [3] > 30 µM | [4] > 30 µM | [5] > 30 µM | [8] > 30 µM | [9] > 30 µM | [11] > 30 µM | [10] > 30 µM

COc1ccc(-c2ccc3ncc4c(c3c2)n(-c2ccc(N3CCNCC3)c(C(F)(F)F)c2)c(=O)n4C)cn1 [BGT-226 FREE BASE]
active: [7] 4.08 µM
inactive: [1] > 30 µM | [2] > 30 µM | [4] > 30 µM | [5] > 30 µM | [6] > 30 µM | [8] > 30 µM | [9] > 30 µM | [11] > 30 µM

C[C@@]1(C(=O)Nc2ccc(F)nc2)CCCN1c1nc(Nc2cc(C3CC3)n[nH]2)c2cccn2n1 [BMS-754807]
inactive: [1] > 30 µM | [2] > 30 µM | [4] > 30 µM

COc1cc2c(Oc3ccc4[nH]c(C)cc4c3F)ncnc2cc1OCCCN1CCCC1 [CEDIRANIB]
inactive: [2] > 30 µM | [4] > 30 µM | [8] > 30 µM

CNC(=O)c1ccc(Nc2ncc(C(F)(F)F)c(NCc3nccnc3N(C)S(C)(=O)=O)n2)cc1 [DEFACTINIB]
inactive: [1] > 30 µM | [3] > 30 µM | [4] > 30 µM | [5] > 30 µM | [6] > 30 µM | [8] > 30 µM | [9] > 30 µM | [11] > 30 µM | [10] > 30 µM
active: [2] 0.73 µM

O=S(=O)(c1cccc2cnccc12)N1CCCNCC1 [FASUDIL]
inactive: [3] > 30 µM | [4] > 30 µM | [5] > 30 µM | [6] > 30 µM | [8] > 30 µM | [9] > 30 µM | [11] > 30 µM | [10] > 30 µM
active: [2] 3.48 µM | [7] 1.92 µM

COc1cc(Nc2ncc(F)c(Nc3ccc4c(n3)N(COP(=O)(O)O)C(=O)C(C)(C)O4)n2)cc(OC)c1OC [FOSTAMATINIB]
inactive: [1] > 30 µM | [2] > 30 µM | [3] > 30 µM | [4] > 30 µM | [5] > 30 µM | [6] > 30 µM | [7] > 30 µM | [8] > 30 µM | [9] > 30 µM | [10] > 30 µM

C[C@]1(O)C[C@@H](c2nc(-c3ccc4ccc(-c5ccccc5)nc4c3)c3c(N)nccn32)C1 [LINSITINIB]
inactive: [2] > 30 µM | [4] > 30 µM | [5] > 30 µM | [6] > 30 µM | [8] > 30 µM | [9] > 30 µM | [10] > 30 µM

N#CCNC(=O)c1ccc(-c2ccnc(Nc3ccc(N4CCOCC4)cc3)n2)cc1 [MOMELOTINIB]
active: [5] 0.822 µM
inactive: [1] > 30 µM | [2] > 30 µM | [4] > 30 µM | [8] > 30 µM | [9] > 30 µM | [11] > 30 µM

CC1(C)CNc2cc(NC(=O)c3cccnc3NCc3ccncc3)ccc21 [MOTESANIB]
inactive: [2] > 30 µM | [4] > 30 µM | [8] > 30 µM

CN(c1ncccc1CNc1nc(Nc2ccc3c(c2)CC(=O)N3)ncc1C(F)(F)F)S(C)(=O)=O [PF-00562271]
inactive: [2] > 30 µM | [4] > 30 µM | [5] > 30 µM | [8] > 30 µM | [9] > 30 µM

CC(C)CC(=O)Nc1[nH]nc2c1CN(C(=O)C1CCN(C)CC1)C2(C)C [PHA-793887]
inactive: [1] > 30 µM | [4] > 30 µM | [5] > 30 µM | [6] > 30 µM | [8] > 30 µM | [9] > 30 µM | [11] > 30 µM
active: [2] 3.66 µM

Cn1cnc2c(F)c(Nc3ccc(Br)cc3Cl)c(C(=O)NOCCO)cc21 [SELUMETINIB]
inactive: [2] > 30 µM | [4] > 30 µM | [8] > 30 µM

Cc1cc(C(=O)Nc2cc(Oc3ccc4nc(NC(=O)C5CC5)cn4n3)ccc2C)n(C)n1 [TAK-593]
inactive: [2] > 30 µM | [3] > 30 µM | [4] > 30 µM | [5] > 30 µM | [6] > 30 µM | [7] > 30 µM | [8] > 30 µM | [9] > 30 µM | [11] > 30 µM | [10] > 30 µM

COc1cc2c(N3CCN(C(=O)Nc4ccc(OC(C)C)cc4)CC3)ncnc2cc1OCCCN1CCCCC1 [TANDUTINIB]
inactive: [2] > 30 µM | [4] > 30 µM | [8] > 30 µM

CNC(=O)c1cc(COc2nnc(Nc3ccc(Cl)cc3)c3ccoc23)ccn1 [TELATINIB]
inactive: [1] > 30 µM | [2] > 30 µM | [3] > 30 µM | [4] > 30 µM | [5] > 30 µM | [6] > 30 µM | [7] > 30 µM | [8] > 30 µM | [9] > 30 µM | [11] > 30 µM
